Reference: PubChem BioAssay (NCI)
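Test compounds were applied to cells in 96-well plates for 48 hours at 5 doses. Abbreviation: GI50, concentration required for 50% inhibition of growth. TGI is the concentration that stops growth completely.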

Legend:
Assay in all cases: NCI anticancer screen, dose series, 48 h
ACHN renal = tested on: ACHN renal
SN12C renal = tested on: SN12C renal
IGROV1 ovarian = tested on: IGROV1 ovarian
M14 melanoma = tested on: M14 melanoma
SK-MEL-28 melanoma = tested on: SK-MEL-28 melanoma
RXF 393 renal = tested on: RXF 393 renal
OVCAR-3 ovarian = tested on: OVCAR-3 ovarian
UACC-62 melanoma = tested on: UACC-62 melanoma
NCI-H23 lung = tested on: NCI-H23 lung
HL-60(TB) leukemia = tested on: HL-60(TB) leukemia

## CC[C@H](CC#N)OC(=O)N[C@@H](C)c1cccc(NC(=O)Nc2ccc(-c3cnco3)c(OC)c2)c1
ACHN renal
  GI50: 0.0872 µM
  TGI: 45.1 µM
SN12C renal
  GI50: 0.111 µM
  TGI: 79.3 µM
IGROV1 ovarian
  GI50: 0.0514 µM
  TGI: 24.2 µM
M14 melanoma
  GI50: 0.0753 µM
  TGI: 30.5 µM
SK-MEL-28 melanoma
  GI50: 0.0505 µM
  TGI: 21.8 µM
RXF 393 renal
  GI50: 0.266 µM
  TGI: > 22.9 µM
OVCAR-3 ovarian
  GI50: 0.0894 µM
  TGI: 45 µM
UACC-62 melanoma
  GI50: 0.141 µM
  TGI: 24.5 µM
NCI-H23 lung
  GI50: 0.16 µM
  TGI: 43.2 µM
HL-60(TB) leukemia
  GI50: 0.184 µM
  TGI: 38.5 µM

## COc1cc([C@@H]2c3cc4c(cc3[C@@H](NC(=O)c3ccccc3)C3COC(=O)[C@@H]32)OCO4)cc(OC)c1O (stereo partly drawn)
ACHN renal
  TGI: 5.55 µM
SN12C renal
  TGI: 9.81 µM
IGROV1 ovarian
  TGI: 25.7 µM
M14 melanoma
  TGI: 24.8 µM
SK-MEL-28 melanoma
  TGI: 87.7 µM
RXF 393 renal
  TGI: 74.4 µM
OVCAR-3 ovarian
  TGI: 56.7 µM
UACC-62 melanoma
  TGI: 11.6 µM
NCI-H23 lung
  TGI: 10.7 µM
HL-60(TB) leukemia
  TGI: 9.44 µM

## O=C1C(Cl)=C(Nc2cccc(O)c2)C(=O)N1c1cc(Cl)c(Cl)cc1Cl
ACHN renal
  GI50: 14.4 µM
  TGI: 27.5 µM
SN12C renal
  GI50: 15.6 µM
  TGI: 29.4 µM
IGROV1 ovarian
  GI50: 8.87 µM
  TGI: 21.2 µM
M14 melanoma
  GI50: 20.8 µM
  TGI: 40.9 µM
SK-MEL-28 melanoma
  GI50: 18.5 µM
  TGI: 36.3 µM
RXF 393 renal
  GI50: 14.9 µM
  TGI: 30.6 µM
OVCAR-3 ovarian
  GI50: 15.9 µM
  TGI: 36.1 µM
UACC-62 melanoma
  GI50: 17.2 µM
  TGI: 32.5 µM
NCI-H23 lung
  GI50: 22.3 µM
  TGI: 48.3 µM

## Oc1ccc(CCCCCCc2ccc(O)cc2)cc1
ACHN renal
  GI50: 1.55 µM
  TGI: 12 µM
SN12C renal
  GI50: 9.22 µM
  TGI: 24.3 µM
IGROV1 ovarian
  GI50: 8.83 µM
  TGI: 28.4 µM
M14 melanoma
  GI50: 4.7 µM
  TGI: 17.5 µM
SK-MEL-28 melanoma
  GI50: 17 µM
  TGI: 31.5 µM
RXF 393 renal
  GI50: 8.03 µM
  TGI: 21.5 µM
OVCAR-3 ovarian
  GI50: 6.02 µM
  TGI: 17.8 µM
UACC-62 melanoma
  GI50: 4.24 µM
  TGI: 15.3 µM
NCI-H23 lung
  GI50: 7.5 µM
  TGI: 21.5 µM
HL-60(TB) leukemia
  GI50: 0.839 µM
  TGI: 18.7 µM

## CC(=O)Nc1ccc2c(c1)oc(=O)c1cc(NC(C)=O)ccc12
ACHN renal
  GI50: > 100 µM
  TGI: > 100 µM
SN12C renal
  GI50: 29.6 µM
  TGI: > 100 µM
IGROV1 ovarian
  GI50: 83.4 µM
  TGI: > 100 µM
M14 melanoma
  GI50: 91.6 µM
  TGI: > 100 µM
SK-MEL-28 melanoma
  GI50: > 100 µM
  TGI: > 100 µM
RXF 393 renal
  GI50: > 100 µM
  TGI: > 100 µM
OVCAR-3 ovarian
  GI50: > 100 µM
  TGI: > 100 µM
UACC-62 melanoma
  GI50: 63.4 µM
  TGI: > 100 µM
NCI-H23 lung
  GI50: > 100 µM
  TGI: > 100 µM
HL-60(TB) leukemia
  GI50: 41.3 µM
  TGI: > 100 µM

## O=C1/C(=C/c2ccc(O)cc2)COc2ccc(-c3ccccc3)cc21
ACHN renal
  GI50: 12.3 µM
  TGI: 25.1 µM
SN12C renal
  GI50: 7.29 µM
  TGI: 24.8 µM
IGROV1 ovarian
  GI50: 6.12 µM
  TGI: 20.8 µM
M14 melanoma
  GI50: 12.2 µM
  TGI: 39.1 µM
SK-MEL-28 melanoma
  GI50: 10.1 µM
  TGI: 24.5 µM
RXF 393 renal
  GI50: 3.35 µM
  TGI: 8.25 µM
OVCAR-3 ovarian
  GI50: 2.49 µM
  TGI: 8.14 µM
UACC-62 melanoma
  GI50: 12.7 µM
  TGI: 25.6 µM
NCI-H23 lung
  GI50: 12.4 µM
  TGI: 29.6 µM
HL-60(TB) leukemia
  GI50: 0.465 µM
  TGI: > 38.2 µM

## CC(=O)Oc1ccc(O)c(O)c1C/C=C(\C)CC/C=C(\C)CC/C=C(\C)CCC=C(C)C
ACHN renal
  TGI: 0.823 µM
SN12C renal
  TGI: 0.868 µM
M14 melanoma
  TGI: 4.98 µM
SK-MEL-28 melanoma
  TGI: 2.19 µM
RXF 393 renal
  TGI: 2.47 µM
NCI-H23 lung
  TGI: 1.47 µM
HL-60(TB) leukemia
  TGI: 4.11 µM

## CC(C)(C)c1ccc(S(=O)(=O)N[C@H]2CC[C@H]3[C@@H]4CCc5cc(OS(=O)(=O)O)ccc5[C@H]4CC[C@]23C)cc1
ACHN renal
  GI50: 2.01 µM
  TGI: 4.24 µM
SN12C renal
  GI50: 1.81 µM
  TGI: 3.58 µM
IGROV1 ovarian
  GI50: 3.63 µM
  TGI: 10.9 µM
M14 melanoma
  GI50: 2.07 µM
  TGI: 4.31 µM
SK-MEL-28 melanoma
  GI50: 1.8 µM
  TGI: 3.38 µM
RXF 393 renal
  GI50: 1.6 µM
  TGI: 3.49 µM
UACC-62 melanoma
  GI50: 1.81 µM
  TGI: 3.72 µM
NCI-H23 lung
  GI50: 2.6 µM
  TGI: 9.15 µM

## CC(=O)NC1=C(C)C(=O)c2c(nc3n2CCC3O)C1=N (stereo not drawn)
ACHN renal
  TGI: 37.7 µM
SN12C renal
  TGI: 19 µM
IGROV1 ovarian
  TGI: 39.3 µM
SK-MEL-28 melanoma
  TGI: 31 µM
OVCAR-3 ovarian
  TGI: 11.1 µM
UACC-62 melanoma
  TGI: 15.5 µM
NCI-H23 lung
  TGI: 29.7 µM
HL-60(TB) leukemia
  TGI: > 100 µM

## CCOP(=O)(OCC)C(NC(c1ccccc1)c1ccccc1)c1cccc2ccccc12 (stereo not drawn)
ACHN renal
  GI50: 4.1 µM
  TGI: 12.3 µM
SN12C renal
  GI50: 2.68 µM
  TGI: 8.65 µM
IGROV1 ovarian
  GI50: 23.6 µM
  TGI: > 100 µM
M14 melanoma
  GI50: 3.03 µM
  TGI: 7.71 µM
OVCAR-3 ovarian
  GI50: 4.22 µM
  TGI: 12.5 µM
UACC-62 melanoma
  GI50: 2.58 µM
  TGI: 9.1 µM
NCI-H23 lung
  GI50: 13.3 µM
  TGI: 29.5 µM
HL-60(TB) leukemia
  GI50: 14.1 µM
  TGI: > 100 µM

## COc1cc(/C=C/C(=O)c2sc(Nc3ccccc3)nc2C)ccc1O
ACHN renal
  TGI: > 100 µM
SN12C renal
  TGI: > 100 µM
IGROV1 ovarian
  TGI: > 100 µM
SK-MEL-28 melanoma
  TGI: > 100 µM
RXF 393 renal
  TGI: > 100 µM
OVCAR-3 ovarian
  TGI: > 100 µM
UACC-62 melanoma
  TGI: > 100 µM
NCI-H23 lung
  TGI: > 100 µM
HL-60(TB) leukemia
  TGI: > 100 µM

## Cc1nc2sc(C(=O)Nc3ccccc3)c(N)c2cc1C(=O)/C=C/c1ccccc1
ACHN renal
  GI50: 1.81 µM
  TGI: 3.45 µM
SN12C renal
  GI50: 2.02 µM
  TGI: 4.45 µM
IGROV1 ovarian
  GI50: 1.99 µM
  TGI: 4.73 µM
M14 melanoma
  GI50: 1.76 µM
  TGI: 4.49 µM
RXF 393 renal
  GI50: 1.67 µM
  TGI: 3.25 µM
OVCAR-3 ovarian
  GI50: 1.9 µM
  TGI: 4.14 µM
UACC-62 melanoma
  GI50: 1.64 µM
  TGI: 3.45 µM
NCI-H23 lung
  GI50: 2.2 µM
  TGI: 5.44 µM
HL-60(TB) leukemia
  GI50: 2.03 µM
  TGI: 4.83 µM

## CC(=O)OCC1OC(n2ccc(=O)[nH]c2=O)C(OC(C)=O)C1OC(C)=O (stereo not drawn)
ACHN renal
  GI50: > 100 µM
  TGI: > 100 µM
SN12C renal
  GI50: > 100 µM
  TGI: > 100 µM
IGROV1 ovarian
  GI50: > 100 µM
  TGI: > 100 µM
M14 melanoma
  GI50: > 100 µM
  TGI: > 100 µM
SK-MEL-28 melanoma
  GI50: > 100 µM
  TGI: > 100 µM
RXF 393 renal
  GI50: > 100 µM
  TGI: > 100 µM
OVCAR-3 ovarian
  GI50: > 100 µM
  TGI: > 100 µM
UACC-62 melanoma
  GI50: > 100 µM
  TGI: > 100 µM
NCI-H23 lung
  GI50: > 100 µM
  TGI: > 100 µM

## COc1ccc(-c2cncn2-c2ccc(OC)cc2)cc1
ACHN renal
  GI50: 21.3 µM
  TGI: 60.4 µM
SN12C renal
  GI50: 18.1 µM
  TGI: 48.3 µM
IGROV1 ovarian
  GI50: 18.7 µM
  TGI: 62.5 µM
M14 melanoma
  GI50: 20.8 µM
  TGI: 46.9 µM
RXF 393 renal
  GI50: 0.376 µM
  TGI: 9.46 µM
OVCAR-3 ovarian
  GI50: 20 µM
  TGI: 45.5 µM
UACC-62 melanoma
  GI50: 15.7 µM
  TGI: 53.1 µM
NCI-H23 lung
  GI50: 19.1 µM
  TGI: 48.3 µM
HL-60(TB) leukemia
  GI50: 9.06 µM
  TGI: 26.2 µM
